Assay results reported in ChEMBL document CHEMBL5705893, “Targeting the mitotic checkpoint for cancer therapy with NMS-P715, an inhibitor of MPS1 kinase” (Cancer Res, 2010).
Active and inactive are the calls of the source. No cut-off for these calls is given here.

Columns and labels:
[1] = Cmax in Athymic nu-nu mouse at 100 mg/kg, po measured upto 24 hrs by LC-MS/MS analysis; assay type: ADME, organism-based; settings: in vivo
U2OS [2] = assay: Induction of mitotic arrest in human U2OS cells at 1 micromol/L incubated for 86 hrs by time-lapse microscopic analysis; assay type: functional, cell-based; settings: dose 1.0 µmol/L
[3] = molecular target: Cyclin-dependent kinase 5/CDK5 activator 1 (Homo sapiens, UniProt Q00535)
Description: Inhibition of recombinant CDK5/P25 (unknown origin)

[4] = molecular target: RAC-alpha serine/threonine-protein kinase (Homo sapiens, UniProt P31749); assay: Inhibition of recombinant AKT1 (unknown origin)
COLO-741 = assay: Antiproliferative activity against human COLO-741 cells assessed as inhibition of cell growth incubated for 72 hrs by celltiter-glo assay; assay type: functional, cell-based; settings: COLO-741, 72 h
NCI-H929 = assay: Antiproliferative activity against human NCI-H929 cells assessed as inhibition of cell growth incubated for 72 hrs by celltiter-glo assay; assay type: functional, cell-based; settings: NCI-H929, 72 h
[5] = molecular target: Serine/threonine-protein kinase PLK1 (Homo sapiens, UniProt P53350); assay: Inhibition of recombinant PLK1 (unknown origin)
HeLa [6] = assay: Effect on HEC1 level in human nocodazole-arrested HeLa cells at 1 micromol/L in presence of MG132; assay type: functional, cell-based; settings: dose 1.0 µmol/L
[7] = AUC in Athymic nu-nu mouse at 10 mg/kg, po measured upto 24 hrs by LC-MS/MS analysis; assay type: ADME, organism-based; settings: in vivo
[8] = molecular target: Serine/threonine-protein kinase 26 (Homo sapiens, UniProt Q9P289); assay: Inhibition of recombinant MST4 (unknown origin)
HCC78 = assay: Antiproliferative activity against human HCC78 cells assessed as inhibition of cell growth incubated for 72 hrs by celltiter-glo assay; assay type: functional, cell-based; settings: HCC78, 72 h
C-33-A = assay: Antiproliferative activity against human C-33-A cells assessed as inhibition of cell growth incubated for 72 hrs by celltiter-glo assay; assay type: functional, cell-based
SW480 = assay: Antiproliferative activity against human SW480 cells assessed as inhibition of cell growth incubated for 72 hrs by celltiter-glo assay; assay type: functional, cell-based; settings: SW480, 72 h
A2780 = assay: Cell cycle arrest in human A2780 cells assessed as accumulation of cells at sub-G1 phase at 0.2 to 1 micromol/L incubated for 72 hrs by FACS/PI staining based flow cytometric analysis; assay type: functional; settings: dose 0.2-1 µmol/L
[9] = Antiproliferative activity against human COLO 206F cells assessed as inhibition of cell growth incubated for 72 hrs by celltiter-glo assay; assay type: functional, cell-based
SU-DHL-6 = assay: Antiproliferative activity against human SU-DHL-6 cells assessed as inhibition of cell growth incubated for 72 hrs by celltiter-glo assay; assay type: functional, cell-based; settings: SU-DHL-6, 72 h
[10] = Antiproliferative activity against human GM13705 cells assessed as inhibition of cell growth incubated for 72 hrs by celltiter-glo assay; assay type: functional, cell-based; settings: GM13705, 72 h
[11] = molecular target: Serine/threonine-protein kinase pim-1 (Homo sapiens, UniProt P11309); assay: Inhibition of recombinant PIM1 (unknown origin)
RPMI-8226 = assay: Antiproliferative activity against human RPMI-8226 cells assessed as inhibition of cell growth incubated for 72 hrs by celltiter-glo assay; assay type: functional, cell-based; settings: RPMI-8226, 72 h
HOP-92 = assay: Antiproliferative activity against human HOP-92 cells assessed as inhibition of cell growth incubated for 72 hrs by celltiter-glo assay; assay type: functional, cell-based; settings: HOP-92, 72 h
U-266 = assay: Antiproliferative activity against human U-266 cells assessed as inhibition of cell growth incubated for 72 hrs by celltiter-glo assay; assay type: functional, cell-based; settings: U-266, 72 h
HeLa [12] = assay: Induction of mitotic arrest in human nocodazole-arrested HeLa cells assessed as delocalization of borealin at 1 micromol/L in presence of MG132; assay type: functional, cell-based; settings: dose 1.0 µmol/L
Activated CDC42 kinase 1 = Activated CDC42 kinase 1 (Homo sapiens, UniProt Q07912); assay: Inhibition of recombinant ACK1 (unknown origin)
U2OS [13] = assay: Induction of mitotic arrest in human U2OS cells expressing YFP-alpha-tubulin assessed as reduction in mitotic-phase length at 1 micromol/L by time-lapse microscopic analysis; assay type: functional, cell-based; settings: dose 1.0 µmol/L
MDA-MB-435 = assay: Antiproliferative activity against human MDA-MB-435 cells assessed as inhibition of cell growth incubated for 72 hrs by celltiter-glo assay; assay type: functional, cell-based; settings: MDA-MB-435, 72 h
HeLa [14] = assay: Induction of mitotic arrest in human nocodazole-arrested HeLa cells assessed as delocalization of MAD2 at 1 micromol/L in presence of MG132; assay type: functional, cell-based; settings: dose 1.0 µmol/L
A-375 = assay: Antiproliferative activity against human A-375 cells assessed as inhibition of cell growth incubated for 72 hrs by celltiter-glo assay; assay type: functional, cell-based; settings: A-375, 72 h
[15] = molecular target: Vascular endothelial growth factor receptor 3 (Homo sapiens, UniProt P35916); assay: Inhibition of recombinant VEGFR3 (unknown origin)
LS180 = assay: Antiproliferative activity against human LS180 cells assessed as inhibition of cell growth incubated for 72 hrs by celltiter-glo assay; assay type: functional, cell-based; settings: LS180, 72 h
[16] = molecular target: Eukaryotic elongation factor 2 kinase (Homo sapiens, UniProt O00418); assay: Inhibition of recombinant EEF2K (unknown origin)
[17] = Half life in Athymic nu-nu mouse at 10 mg/kg, iv measured upto 24 hrs by LC-MS/MS analysis; assay type: ADME, organism-based; settings: in vivo
Hs-578T = assay: Antiproliferative activity against human Hs-578T cells assessed as inhibition of cell growth incubated for 72 hrs by celltiter-glo assay; assay type: functional, cell-based
MIA PaCa-2 = assay: Antiproliferative activity against human MIA PaCa-2 cells assessed as inhibition of cell growth incubated for 72 hrs by celltiter-glo assay; assay type: functional, cell-based; settings: MIA PaCa-2, 72 h
[18] = molecular target: Mitotic checkpoint serine/threonine-protein kinase BUB1 (Homo sapiens, UniProt O43683); assay: Inhibition of recombinant BUB1 (unknown origin)
[19] = molecular target: Vascular endothelial growth factor receptor 2 (Homo sapiens, UniProt P35968); assay: Inhibition of recombinant VEGFR2 (unknown origin)
KARPAS-299 = assay: Antiproliferative activity against human KARPAS-299 cells assessed as inhibition of cell growth incubated for 72 hrs by celltiter-glo assay; assay type: functional, cell-based; settings: KARPAS-299, 72 h
L-363 = assay: Antiproliferative activity against human L-363 cells assessed as inhibition of cell growth incubated for 72 hrs by celltiter-glo assay; assay type: functional, cell-based; settings: L-363, 72 h
Casein kinase 2 = Casein kinase 2 (Homo sapiens, UniProt P67870+P68400+P19784+Q8NEV1); assay: Inhibition of recombinant CK2 (unknown origin); assay type: protein assay
[20] = molecular target: Serine/threonine-protein kinase PLK3 (Homo sapiens, UniProt Q9H4B4); assay: Inhibition of recombinant PLK3 (unknown origin)
[21] = molecular target: Serine/threonine-protein kinase Chk1 (Homo sapiens, UniProt O14757); assay: Inhibition of recombinant CHK1 (unknown origin)
[22] = Cmax in Athymic nu-nu mouse at 10 mg/kg, iv measured upto 24 hrs by LC-MS/MS analysis; assay type: ADME, organism-based; settings: in vivo
NCI-H2228 = assay: Antiproliferative activity against human NCI-H2228 cells assessed as inhibition of cell growth incubated for 72 hrs by celltiter-glo assay; assay type: functional, cell-based; settings: NCI-H2228, 72 h

Eukaryotic elongation factor 2 kinase, sequence (O00418 whole entry): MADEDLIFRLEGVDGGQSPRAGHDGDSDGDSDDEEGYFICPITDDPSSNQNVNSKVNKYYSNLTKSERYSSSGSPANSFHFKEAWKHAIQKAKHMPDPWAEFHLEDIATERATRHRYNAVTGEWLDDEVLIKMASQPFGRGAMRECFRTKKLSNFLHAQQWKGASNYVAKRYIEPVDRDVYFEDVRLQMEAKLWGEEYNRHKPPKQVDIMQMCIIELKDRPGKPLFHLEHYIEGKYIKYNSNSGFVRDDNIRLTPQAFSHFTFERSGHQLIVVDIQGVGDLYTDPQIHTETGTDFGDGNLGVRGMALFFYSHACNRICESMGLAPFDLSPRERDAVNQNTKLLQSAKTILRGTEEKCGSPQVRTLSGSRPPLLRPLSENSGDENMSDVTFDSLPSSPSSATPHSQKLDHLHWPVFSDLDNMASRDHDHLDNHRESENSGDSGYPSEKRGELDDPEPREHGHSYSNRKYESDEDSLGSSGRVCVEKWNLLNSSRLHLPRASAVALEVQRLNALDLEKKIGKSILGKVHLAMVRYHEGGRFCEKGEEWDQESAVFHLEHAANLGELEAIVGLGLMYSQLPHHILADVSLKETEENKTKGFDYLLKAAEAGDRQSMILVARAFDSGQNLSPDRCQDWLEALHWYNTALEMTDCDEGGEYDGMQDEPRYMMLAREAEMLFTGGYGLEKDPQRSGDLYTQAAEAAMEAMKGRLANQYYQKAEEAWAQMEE
Activated CDC42 kinase 1, sequence (Q07912 whole entry): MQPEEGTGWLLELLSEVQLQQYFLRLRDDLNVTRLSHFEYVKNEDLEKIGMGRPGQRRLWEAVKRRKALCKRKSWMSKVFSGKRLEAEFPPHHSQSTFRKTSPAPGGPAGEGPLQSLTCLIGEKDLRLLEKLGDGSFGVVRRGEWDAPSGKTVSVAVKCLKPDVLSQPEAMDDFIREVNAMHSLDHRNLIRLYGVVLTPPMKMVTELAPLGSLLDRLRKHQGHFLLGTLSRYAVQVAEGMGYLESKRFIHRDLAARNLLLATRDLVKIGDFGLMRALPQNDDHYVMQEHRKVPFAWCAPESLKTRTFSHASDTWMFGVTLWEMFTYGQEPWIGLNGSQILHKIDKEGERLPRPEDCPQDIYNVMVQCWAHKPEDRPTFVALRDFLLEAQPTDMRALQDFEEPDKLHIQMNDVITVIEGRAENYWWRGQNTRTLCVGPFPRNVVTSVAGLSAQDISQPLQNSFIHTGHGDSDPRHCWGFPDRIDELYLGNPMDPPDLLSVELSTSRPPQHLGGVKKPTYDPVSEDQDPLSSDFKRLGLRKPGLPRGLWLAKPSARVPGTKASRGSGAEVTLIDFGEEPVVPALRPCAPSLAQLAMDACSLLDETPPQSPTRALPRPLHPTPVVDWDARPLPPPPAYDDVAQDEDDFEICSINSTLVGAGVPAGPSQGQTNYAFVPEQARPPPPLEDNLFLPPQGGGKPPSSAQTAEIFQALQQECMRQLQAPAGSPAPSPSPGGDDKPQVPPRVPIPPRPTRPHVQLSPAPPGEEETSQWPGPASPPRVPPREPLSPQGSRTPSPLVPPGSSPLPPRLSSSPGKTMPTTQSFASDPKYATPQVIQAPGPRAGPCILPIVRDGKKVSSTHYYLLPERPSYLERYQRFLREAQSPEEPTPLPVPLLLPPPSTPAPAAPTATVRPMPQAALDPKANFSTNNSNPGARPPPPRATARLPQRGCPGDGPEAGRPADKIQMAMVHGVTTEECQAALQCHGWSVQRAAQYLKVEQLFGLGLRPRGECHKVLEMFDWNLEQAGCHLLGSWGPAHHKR
Cyclin-dependent kinase 5/CDK5 activator 1, sequence (Q00535 whole entry): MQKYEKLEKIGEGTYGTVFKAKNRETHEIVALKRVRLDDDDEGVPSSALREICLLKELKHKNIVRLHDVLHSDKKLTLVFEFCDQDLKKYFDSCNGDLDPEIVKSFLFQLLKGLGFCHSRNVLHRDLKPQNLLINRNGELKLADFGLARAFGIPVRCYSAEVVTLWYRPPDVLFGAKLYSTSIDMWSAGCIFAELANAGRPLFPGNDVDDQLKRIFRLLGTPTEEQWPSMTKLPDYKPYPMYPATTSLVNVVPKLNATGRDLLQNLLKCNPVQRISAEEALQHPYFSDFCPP
Cyclin-dependent kinase 5/CDK5 activator 1, sequence (Q15078 whole entry, further chain): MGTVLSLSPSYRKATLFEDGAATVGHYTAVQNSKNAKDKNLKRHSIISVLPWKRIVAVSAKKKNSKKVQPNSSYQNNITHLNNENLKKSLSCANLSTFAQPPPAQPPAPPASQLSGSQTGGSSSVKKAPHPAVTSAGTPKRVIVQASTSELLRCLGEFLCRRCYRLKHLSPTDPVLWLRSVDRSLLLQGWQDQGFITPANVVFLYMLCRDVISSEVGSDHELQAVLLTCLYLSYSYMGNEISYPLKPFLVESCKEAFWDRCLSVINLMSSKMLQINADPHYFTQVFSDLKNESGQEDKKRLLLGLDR
Serine/threonine-protein kinase 26, sequence (Q9P289 whole entry): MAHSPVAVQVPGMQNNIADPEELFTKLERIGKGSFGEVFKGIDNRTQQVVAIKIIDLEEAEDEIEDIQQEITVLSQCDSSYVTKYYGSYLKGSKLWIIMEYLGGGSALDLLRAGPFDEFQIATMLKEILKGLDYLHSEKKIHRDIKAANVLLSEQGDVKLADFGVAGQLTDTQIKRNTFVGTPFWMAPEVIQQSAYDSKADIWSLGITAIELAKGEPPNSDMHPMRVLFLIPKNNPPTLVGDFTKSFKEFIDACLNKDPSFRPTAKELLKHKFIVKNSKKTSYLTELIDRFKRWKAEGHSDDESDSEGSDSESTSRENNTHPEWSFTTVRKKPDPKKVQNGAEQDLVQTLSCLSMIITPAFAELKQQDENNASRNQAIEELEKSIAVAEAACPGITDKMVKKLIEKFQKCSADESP
Vascular endothelial growth factor receptor 2, sequence (P35968 whole entry): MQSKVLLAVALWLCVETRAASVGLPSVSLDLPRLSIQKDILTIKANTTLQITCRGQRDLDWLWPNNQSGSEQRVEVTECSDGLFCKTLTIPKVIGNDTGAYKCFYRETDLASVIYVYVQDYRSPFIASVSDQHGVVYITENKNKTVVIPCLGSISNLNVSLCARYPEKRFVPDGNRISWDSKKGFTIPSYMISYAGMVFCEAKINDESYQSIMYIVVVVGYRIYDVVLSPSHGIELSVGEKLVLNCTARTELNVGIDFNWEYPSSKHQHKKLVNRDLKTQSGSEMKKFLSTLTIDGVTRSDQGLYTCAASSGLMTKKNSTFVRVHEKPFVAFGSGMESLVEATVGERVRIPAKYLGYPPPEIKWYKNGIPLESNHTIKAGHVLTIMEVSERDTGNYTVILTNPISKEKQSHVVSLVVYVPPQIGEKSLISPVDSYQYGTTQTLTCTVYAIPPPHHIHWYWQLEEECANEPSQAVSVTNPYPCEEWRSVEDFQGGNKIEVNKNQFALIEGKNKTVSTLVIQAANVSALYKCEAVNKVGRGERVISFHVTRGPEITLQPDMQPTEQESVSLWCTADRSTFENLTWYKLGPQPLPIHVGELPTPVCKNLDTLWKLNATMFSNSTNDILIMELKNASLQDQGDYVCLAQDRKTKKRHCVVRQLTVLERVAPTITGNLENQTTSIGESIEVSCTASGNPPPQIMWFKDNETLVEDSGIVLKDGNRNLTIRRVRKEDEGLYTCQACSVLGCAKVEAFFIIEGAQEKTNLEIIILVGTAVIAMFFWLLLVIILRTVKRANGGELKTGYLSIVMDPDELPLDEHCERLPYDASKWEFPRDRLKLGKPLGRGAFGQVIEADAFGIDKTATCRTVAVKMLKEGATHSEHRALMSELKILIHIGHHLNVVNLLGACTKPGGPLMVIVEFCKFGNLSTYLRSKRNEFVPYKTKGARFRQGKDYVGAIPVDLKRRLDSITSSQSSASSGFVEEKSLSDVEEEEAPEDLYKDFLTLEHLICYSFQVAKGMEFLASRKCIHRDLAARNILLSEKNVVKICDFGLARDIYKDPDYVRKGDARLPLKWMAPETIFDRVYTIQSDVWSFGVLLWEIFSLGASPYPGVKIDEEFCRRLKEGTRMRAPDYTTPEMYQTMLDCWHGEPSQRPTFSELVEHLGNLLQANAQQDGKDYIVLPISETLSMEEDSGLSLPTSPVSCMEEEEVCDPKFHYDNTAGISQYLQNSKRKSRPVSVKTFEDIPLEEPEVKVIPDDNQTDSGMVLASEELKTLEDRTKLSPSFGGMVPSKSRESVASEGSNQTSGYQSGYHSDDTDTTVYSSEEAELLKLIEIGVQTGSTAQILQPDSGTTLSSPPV
RAC-alpha serine/threonine-protein kinase, sequence (P31749 whole entry): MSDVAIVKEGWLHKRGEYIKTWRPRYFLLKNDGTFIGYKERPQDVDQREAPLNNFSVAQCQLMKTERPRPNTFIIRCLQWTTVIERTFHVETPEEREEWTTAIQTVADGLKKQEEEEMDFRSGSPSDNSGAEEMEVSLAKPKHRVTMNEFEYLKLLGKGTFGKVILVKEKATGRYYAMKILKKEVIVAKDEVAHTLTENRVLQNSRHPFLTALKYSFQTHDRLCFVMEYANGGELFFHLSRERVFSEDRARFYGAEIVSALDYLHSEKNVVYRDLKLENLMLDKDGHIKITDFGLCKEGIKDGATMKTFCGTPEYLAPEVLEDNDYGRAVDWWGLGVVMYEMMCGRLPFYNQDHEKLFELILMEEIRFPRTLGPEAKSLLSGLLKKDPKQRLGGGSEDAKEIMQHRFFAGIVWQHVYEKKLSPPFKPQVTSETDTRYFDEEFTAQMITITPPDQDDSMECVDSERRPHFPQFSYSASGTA
Serine/threonine-protein kinase pim-1, sequence (P11309 whole entry): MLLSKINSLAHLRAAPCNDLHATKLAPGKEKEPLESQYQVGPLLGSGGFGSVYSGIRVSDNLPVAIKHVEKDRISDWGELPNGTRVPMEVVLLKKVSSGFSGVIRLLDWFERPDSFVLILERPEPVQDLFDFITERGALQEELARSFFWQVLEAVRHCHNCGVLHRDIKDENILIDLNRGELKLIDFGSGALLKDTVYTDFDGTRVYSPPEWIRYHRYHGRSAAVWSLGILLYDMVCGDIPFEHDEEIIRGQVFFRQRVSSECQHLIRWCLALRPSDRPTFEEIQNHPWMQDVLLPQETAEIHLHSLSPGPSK

Cmax [1]: 1.79 µM
IC50 [3]: > 10 µM
IC50 [4]: > 10 µM
IC50 (COLO-741): 10 µM
IC50 (NCI-H929): 10 µM
IC50 [5]: > 10 µM
AUC at 24 h [7]: 8.66 µM·h
IC50 [8]: > 10 µM
IC50 (HCC78): 10 µM
IC50 (SW480): 1.3 µM
IC50 (SU-DHL-6): 10 µM
IC50 [11]: > 10 µM
IC50 (RPMI-8226): 1.48 µM
IC50 (Activated CDC42 kinase 1): > 10 µM
IC50 (MDA-MB-435): 1.96 µM
IC50 (A-375): 0.796 µM
IC50 [15]: > 10 µM
IC50 [16]: > 10 µM
half-life [17]: 7.65 h
IC50 (MIA PaCa-2): 2.55 µM
IC50 [18]: > 10 µM
IC50 [19]: > 10 µM
IC50 (KARPAS-299): 3.53 µM
IC50 (Casein kinase 2): 5.7 µM
IC50 [20]: > 10 µM
IC50 [21]: > 10 µM
Cmax [22]: 4.79 µM
IC50 (NCI-H2228): 5.81 µM
Structure (SMILES): CCc1cccc(CC)c1NC(=O)c1nn(C)c2c1CCc1cnc(Nc3ccc(C(=O)NC4CCN(C)CC4)cc3OC(F)(F)F)nc1-2
Activity (U2OS [2]): Active
Activity (HeLa [6]): Active
IC50 (C-33-A): 3.01 µM
Activity (A2780): Active
IC50 [9]: 1.24 µM
IC50 [10]: 10 µM
IC50 (HOP-92): 2.18 µM
IC50 (U-266): 5.93 µM
Activity (HeLa [12]): Active
Activity (U2OS [13]): Active
Activity (HeLa [14]): Active
IC50 (LS180): 2.17 µM
IC50 (Hs-578T): 6.64 µM
IC50 (L-363): 1.61 µM
